# Experimental data reported in patent US20040018500A1, “Methods and systems for analyzing complex biological systems” (priority 2001, published 2004).
# Tested on: Saccharomyces cerevisiae wild type strain BY4743
# Test: AF1 metabolite analysis (GC-MS, LC-MS) of yeast treated with antifungal drugs
# Assay type: cell-based
# Details: for # Compounds perturbed: yeast, 2×MIC, two hours
smiles,measurement,setting,value
C[C@@H]1[C@H](O)[C@@H](C)/C=C/C=C/C=C/C=C/C=C/C=C/C=C/[C@H](O[C@@H]2O[C@H](C)[C@@H](O)[C@H](N)[C@@H]2O)C[C@@H]2O[C@](O)(C[C@@H](O)C[C@@H](O)[C@H](O)CC[C@@H](O)C[C@@H](O)CC(=O)O[C@H]1C)C[C@H](O)[C@H]2C(=O)O [Amphoteracin B],Fold Change of TMS mevalonic acid lactone,GC,−0.9767
same,Fold Change of alanine,GC,−0.7773
same,Fold Change of asparagine,GC,−1
same,Fold Change of aspartic acid,GC,−0.9743
same,Fold Change of campesterol,GC,0
same,Fold Change of desmosterol,GC,0
same,Fold Change of disaccaride1,GC,−1
same,Fold Change of disaccaride2,GC,−0.9977
same,Fold Change of disaccaride3,GC,−0.9977
same,Fold Change of ergosterol,GC,2.303
same,Fold Change of fucosterol,GC,−0.6553
same,Fold Change of glutamine,GC,−0.9116
same,Fold Change of glycanopyrose,GC,−0.958
same,Fold Change of glycerol,GC,−0.815
same,Fold Change of glycine,GC,0.8807
same,Fold Change of hexadecanoic acid,GC,−0.2427
same,Fold Change of iso citric acid,GC,−0.6183
same,Fold Change of isoleucine,GC,−0.9533
same,Fold Change of lanosterol,GC,−1
same,Fold Change of leucine,GC,−0.9443
same,Fold Change of lysine,GC,−0.3925
same,Fold Change of malic acid,GC,−0.963
same,Fold Change of mevalonic acid lactone,GC,−0.1276
same,Fold Change of octadecanoic acid,GC,0.21
same,Fold Change of oleic acid,GC,−0.4593
same,Fold Change of ornithine2,GC,−1
same,Fold Change of ornithine3,GC,−0.9853
same,Fold Change of palmiteliadic acid,GC,0.515
same,Fold Change of phenylalanine,GC,−0.9797
same,Fold Change of phosphate,GC,−0.007333
same,Fold Change of pyrimidine,GC,−0.185
same,Fold Change of squalene,GC,−0.5745
same,Fold Change of tetradecanoic acid,GC,0.07967
same,Fold Change of threonine2,GC,−0.8553
same,Fold Change of threonine3,GC,−0.8933
same,Fold Change of tms glutamine3,GC,−0.8935
same,Fold Change of tms lysine4,GC,−0.9783
same,Fold Change of tms tyrosine2,GC,−0.3593
same,Fold Change of tms tyrosine3,GC,−0.9473
same,Fold Change of valine,GC,−0.8673
same,Fold Change of abscisic acid,LC,0
same,Fold Change of adenosine,LC,0
same,Fold Change of glutamine/lysine,LC,0.3981
same,Fold Change of guanosine,LC,0.7598
same,Fold Change of riboflavin,LC,0
same,Fold Change of serine,LC,0.2011
same,Fold Change of tyrosine,LC,0.2347
same,# Compounds perturbed,P < 0.05,16
same,# Compounds perturbed,P < 0.1,21
same,Fold Change of 2-ketobutyric acid,nLC,−0.9992
same,Fold Change of 2-ketoglutaric,nLC,8.791
same,Fold Change of 3-indolylacetonitri,nLC,−0.9998
same,Fold Change of 4-methylcatechol,nLC,0
same,Fold Change of 4aminobutyrate/dimg,nLC,−0.1983
same,Fold Change of 5hydroxyLtryptophan,nLC,0
same,Fold Change of 6-benzylaminopurine,nLC,0
same,Fold Change of DLaminoadipic acid,nLC,1.411
same,Fold Change of NacetylDglucosamine,nLC,0
same,Fold Change of NacetylLglutamate,nLC,−0.1078
same,Fold Change of NacetylLornithine,nLC,0
same,Fold Change of abscisic acid,nLC,0
same,Fold Change of aconitic acid,nLC,0.5426
same,Fold Change of adenine,nLC,0
same,Fold Change of adenosine,nLC,0
same,Fold Change of alanine,nLC,0.1599
same,Fold Change of allantoic acid,nLC,−0.1456
same,Fold Change of allantoin,nLC,3.97
same,Fold Change of anthranilic acid,nLC,0
same,Fold Change of arginine,nLC,−0.4885
same,Fold Change of argininosuccinate,nLC,0
same,Fold Change of asparagine,nLC,0.1511
same,Fold Change of aspartic,nLC,0.2407
same,Fold Change of benzoic acid,nLC,0
same,Fold Change of biotin,nLC,1.077
same,Fold Change of caffeic acid,nLC,−0.5882
same,Fold Change of catechol,nLC,0
same,Fold Change of cinnamic acid,nLC,0
same,Fold Change of citricanoic/itaconi,nLC,0
same,Fold Change of citrulline,nLC,1659
same,Fold Change of coumaric acid,nLC,0
same,Fold Change of cytidine,nLC,−0.9986
same,Fold Change of cytosine,nLC,0
same,Fold Change of decanoic acid,nLC,−0.08716
same,Fold Change of diaminopimelic acid,nLC,0
same,Fold Change of dihydrofolic acid,nLC,0
same,Fold Change of estrone,nLC,0
same,Fold Change of farnesol,nLC,0
same,Fold Change of folic acid,nLC,0
same,Fold Change of fumaric/3m2oxobutan,nLC,0.4423
same,Fold Change of gallic acid,nLC,0.1622
same,Fold Change of gibberellic,nLC,0
same,Fold Change of giutamine/lysine,nLC,0.07919
same,Fold Change of glucosamine6PO4,nLC,−0.9951
same,Fold Change of glutamic/acetylseri,nLC,0.1414
same,Fold Change of guanine,nLC,0
same,Fold Change of guanosine,nLC,1.131
same,Fold Change of histidine,nLC,0
same,Fold Change of homogentisic/uric,nLC,0
same,Fold Change of hydrocortisone,nLC,0
same,Fold Change of hypoxanthine,nLC,0.1655
same,Fold Change of indole3pyruvic acid,nLC,0
same,Fold Change of inostol/glucos/sorb,nLC,−0.5905
same,Fold Change of isocitric/citric/qu,nLC,2.549
same,Fold Change of jasmonic acid,nLC,0
